Data set [1] has as its target liver acetaldehyde dehydrogenase. The data set can be described thus: Inhibition of liver acetaldehyde dehydrogenase (I50). The format is biochemical. The following applies: bovine liver enzyme, propionaldehyde substrate, NAD, pH 9.6, 26.0 °C, 15 minutes; read-out: I50 values (molar concentration for 50% inhibition) for inhibition of liver acetaldehyde dehydrogenase. An excerpt: The specific activity of the partially purified enzyme preparation was 172 units per milligram of protein. The assay system contained 30μ moles of sodium pyrophosphate buffer with a final pH of 9.6, 135μ moles of propylene glycol to serve as a vehicle for the compound being tested, 0.5μ mole of propionaldehyde, 1μ mole of nicotinamide adenine dinucleotide and 120 units of enzyme to initiate the reaction in a total volume of 3.0 milliliters. The assay mixture was contained in 1 centimeter silica cuvettes. The reaction was followed by measuring the increase in optical density at 340 mμ with time on the Beckman du spectrophotometer which was equipped with dual thermospacers set to maintain the temperature of the cell compartment at 26.0 ± 0.1° C. by means of a circulating water bath (Haake Thermostat F, Berlin). Readings of optical density were taken each minute for 15 minutes. The optical density at 15 minutes corrected for optical density at zero time was used to calculate percent inhibition compared with controls which contained all constituents except the compound being tested. Fifty percent inhibition values (I50) were determined from first order reaction plots at multiple levels of the tested compound. Sodium pyrophosphate changes pH when diluted with the other reaction constitutents in water; so, this effect was compensated for to bring the final pH of the incubation mixture to 9.6.

For data set [2] the following is noted: man and animals; cited from earlier work.
A further data set has as its system aldehyde dehydrogenase. The following applies: cited from earlier work; for effectiveness compared with disulfiram: evaluation said to considerably underestimate effectiveness.
The next data set concerns E. criceti. The following applies: cited from earlier work.
For data set [3], the system named is antispermatogenic activity. The settings on record: cited from earlier work.
Another data set deals with spermatogenesis. The settings on record: cited from earlier work.
Data set [4] has as its system antispermatogenic activity. The settings on record: Coulston et al.; Surrey U.S. Pat. No. 3,143,566; cited from earlier work.

The structures appear in SMILES notation.

Consider `O=C(NCCCCCCCCNC(=O)C(Cl)Cl)c1ccc(Cl)cc1` [Example B-1, N-(dichloroacetyl)-N'-(4-chlorobenzoyl)-1,8-octanediamine], for which, in data set [1], the IC50 came to 2700 nM.
Consider `O=C(NCCCCCCCCNC(=O)C(Cl)Cl)c1ccc(Cl)c(Cl)c1` [Example B-2, N-(Dichloroacetyl)-N'-(3,4-dichlorobenzoyl)-1,8-octanediamine], for which the IC50 in data set [1] amounted to 820 nM.
`CCN(Cc1ccc(CN(CC)C(=O)C(Cl)Cl)cc1)C(=O)C(Cl)Cl` [Win 13,099, N,N'-bis(dichloroacetyl)-N,N'-diethyl-1,4-bis(aminomethyl)benzene]: in data set [2], the side effect result was “a reaction to ethanol in man and animals”. Besides, in the data set with aldehyde dehydrogenase, the “effectiveness compared with disulfiram” value is “about as effective as disulfiram”.
`O=C(NCCCCCCCCNC(=O)C(Cl)Cl)C(Cl)Cl` [Win 18,466, N,N'-Bis(dichloroacetyl)-1,8-octanediamine]: the “in vivo amebicidal activity against E. criceti in hamsters” value with E. criceti was “not to have in vivo amebicidal activity”. Besides, the side effect result in data set [2] is “a reaction to ethanol in man and animals”. In addition, the “antispermatogenic activity in rats” value in data set [3] is on record as “to have antispermatogenic activity in rats”. Also, in the data set on spermatogenesis, the “suppression of spermatogenesis in man” value is listed as “to suppress spermatogenesis in man”. Further, the antispermatogenic activity result in data set [4] is listed as “highly antispermatogenically-active”. Also, in the data set on aldehyde dehydrogenase, the “inhibitor of aldehyde dehydrogenase” value was “to be an inhibitor of aldehyde dehydrogenase” and the “effectiveness compared with disulfiram” value is reported as “about as effective as disulfiram”.
With `CCN(CC)C(=S)SSC(=S)N(CC)CC` [disulfiram, bis(diethylthiocarbamoyl) disulfide], the IC50 in data set [1] turned out to be 13000 nM.
